This note sets out measurements from ChEMBL document CHEMBL1201862, “PubChem BioAssay data set” (2004).

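How tested: cells in 96-well plates exposed to compound for 48 hours at five concentrations. The concentration for 50% growth inhibition is given as GI50.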 The source made the active and inactive calls. No stated cut-off is given here; in the data, active = GI50 up to about 1.1 µM and inactive = higher.

Among the test systems are HCT-116; HOP-62; HT-29; IGROV-1; KM12; M14; MCF7; Malme-3M; NCI-H23; NCI-H460; NCI/ADR-RES; OVCAR-8; RPMI-8226; RXF 393; SK-MEL-2; SK-MEL-5; SK-OV-3; SNB-75; SW-620; UO-31.
What all share (assay): DTP human tumour cell line panel, 48 h

`C/C(=C\c1ccc(Cl)cc1)C(C)(C)C(=O)O`: the GI50 in the assay with HCT-116, in the assay on HOP-62, in the assay on HT-29, with IGROV-1, in the assay on KM12 and in the assay with M14 was > 100 µM (inactive) in each case. Also, the GI50 in the assay with MCF7, in the assay on Malme-3M, with NCI-H23, in the assay on NCI-H460, in the assay on NCI/ADR-RES and in the assay with OVCAR-8 was > 100 µM (inactive) throughout. Further, the GI50 in the assay on RPMI-8226, in the assay on RXF 393, in the assay with SK-MEL-2, in the assay with SK-MEL-5, with SK-OV-3 and in the assay with SNB-75 was > 100 µM (inactive) in each case. Moreover, the GI50 in the assay on SW-620 and in the assay on UO-31 was > 100 µM (inactive) in each case.

As for `N#CSCC1COc2ccccc2O1` (stereo not given), the GI50 in the assay on HCT-116 is 5.92 µM (inactive); in the assay on HOP-62, > 10 µM (inactive); with HT-29, > 10 µM (inactive); with IGROV-1, > 10 µM (inactive); with KM12, > 10 µM (inactive); with M14, 8.39 µM (inactive). For the same molecule, the GI50 in the assay on MCF7, in the assay on Malme-3M, in the assay with NCI-H23, in the assay on NCI-H460, in the assay on NCI/ADR-RES and in the assay with OVCAR-8 was > 10 µM (inactive) each time. The GI50 in the assay on RPMI-8226 is 4.98 µM (inactive); in the assay with RXF 393, > 10 µM (inactive); with SK-MEL-2, > 10 µM (inactive); in the assay with SK-MEL-5 it was 6.87 µM (inactive); with SK-OV-3, > 10 µM (inactive); with SNB-75, > 10 µM (inactive). The GI50 in the assay with SW-620 is 4.97 µM (inactive); in the assay on UO-31, > 10 µM (inactive).

Turning to `CC(=O)Nc1ccc(/C=C/C(=O)N2CC(CCl)c3c2cc(N)c2ccccc32)cc1` (stereo not given), the GI50 in the assay on HCT-116 was < 0.005 µM (active); in the assay with HOP-62, < 0.005 µM (active); with HT-29, < 0.005 µM (active); in the assay with IGROV-1, < 0.005 µM (active); in the assay on KM12 it was 0.0064 µM (active); with M14 it was < 0.005 µM (active). Further, the concentration for 50% growth inhibition (GI50) with MCF7, in the assay on Malme-3M, with NCI-H23, in the assay on NCI-H460, with NCI/ADR-RES and in the assay on OVCAR-8 was < 0.005 µM (active) each time. In addition, the GI50 in the assay on RPMI-8226 is 0.0149 µM (active); with RXF 393, < 0.005 µM (active); in the assay on SK-MEL-2, < 0.005 µM (active); with SK-MEL-5 it was < 0.005 µM (active); in the assay on SK-OV-3, 0.0091 µM (active); with SNB-75 it was 0.01 µM (active). In addition, the GI50 with SW-620 and with UO-31 was < 0.005 µM (active) throughout.

For `COc1ccc(-c2cc(C(O)C3CCCCN3)c3ccccc3n2)cc1` (stereo not given), the GI50 in the assay on HCT-116 was 9.35 µM (inactive); in the assay with HOP-62 it was 11.7 µM (inactive); in the assay on HT-29, 3.11 µM (inactive); in the assay on IGROV-1 it was 8.45 µM (inactive); in the assay on KM12, 4.14 µM (inactive); with M14 it was 2.14 µM (inactive). Also, the GI50 in the assay on MCF7 was 3.87 µM (inactive); in the assay on Malme-3M it was 13.6 µM (inactive); in the assay on NCI-H23, 13.4 µM (inactive); in the assay on NCI-H460 it was 3.05 µM (inactive); with NCI/ADR-RES it was 16.7 µM (inactive); in the assay on OVCAR-8 it was 13.7 µM (inactive). Also, the GI50 in the assay on RPMI-8226 is 2.33 µM (inactive); in the assay with RXF 393, 4.58 µM (inactive); in the assay with SK-MEL-2 it was 6.12 µM (inactive); in the assay on SK-MEL-5, 6.25 µM (inactive); in the assay with SK-OV-3, 14.2 µM (inactive); in the assay with SNB-75, 4.31 µM (inactive). Besides, the GI50 in the assay on SW-620 was 9.59 µM (inactive); in the assay with UO-31, 3.59 µM (inactive).

`CC(NNC(=O)c1cc[n+]([BH2-]C#N)cc1)c1ccc(F)cc1` (stereo not given): the GI50 with HCT-116, in the assay on HOP-62, in the assay on HT-29, with IGROV-1, with KM12 and in the assay with M14 was > 100 µM (inactive) in each case. For the same molecule, the GI50 in the assay with MCF7, with Malme-3M, in the assay on NCI-H23, with NCI-H460, in the assay with NCI/ADR-RES and in the assay on OVCAR-8 was > 100 µM (inactive) throughout. The GI50 in the assay on RPMI-8226, with RXF 393, with SK-MEL-2, in the assay on SK-MEL-5, with SK-OV-3 and with SNB-75 was > 100 µM (inactive) each time. Besides, the GI50 in the assay on SW-620 and in the assay on UO-31 was > 100 µM (inactive) each time.

Regarding `Cc1nnc2sc(N/N=C/c3ccccc3)nn12`, the GI50 with HCT-116, in the assay with HOP-62, in the assay with HT-29, with IGROV-1, in the assay on KM12 and in the assay on M14 was > 100 µM (inactive) in each case. The GI50 in the assay on MCF7, with Malme-3M, in the assay on NCI-H23, in the assay with NCI-H460, in the assay on NCI/ADR-RES and with OVCAR-8 was > 100 µM (inactive) in each case. Besides, the GI50 with RPMI-8226 was > 100 µM (inactive); in the assay on RXF 393 it was > 100 µM (inactive); in the assay on SK-MEL-2, > 100 µM (inactive); in the assay on SK-MEL-5, > 100 µM (inactive); in the assay on SK-OV-3 it was 27.4 µM (inactive); in the assay on SNB-75 it was > 100 µM (inactive). Besides, the GI50 in the assay on SW-620 and with UO-31 was > 100 µM (inactive) in each case.

In the case of `Clc1ncc(C(Cl)(Cl)Cl)nc1-c1ccccc1`, the GI50 with HCT-116 was 1.87 µM (inactive); in the assay with HOP-62, 2.26 µM (inactive); in the assay with HT-29, 1.82 µM (inactive); with IGROV-1 it was 2.4 µM (inactive); in the assay with KM12, 1.82 µM (inactive); with M14, 2.23 µM (inactive). For the same molecule, the GI50 in the assay on MCF7 is 1.68 µM (inactive); in the assay on Malme-3M it was 5.14 µM (inactive); in the assay on NCI-H23, 2.24 µM (inactive); with NCI-H460, 3.01 µM (inactive); in the assay on NCI/ADR-RES, 4.07 µM (inactive); in the assay on OVCAR-8, 2.57 µM (inactive). For the same molecule, the GI50 was 0.598 µM (active) with RPMI-8226; 1.64 µM (inactive) with RXF 393; 2.27 µM (inactive) in the assay on SK-MEL-2; 12.2 µM (inactive) in the assay with SK-MEL-5; 11.9 µM (inactive) in the assay with SK-OV-3; 2.56 µM (inactive) in the assay on SNB-75. The GI50 in the assay on SW-620 is 4.21 µM (inactive); in the assay on UO-31, 1.84 µM (inactive).

In the case of `Sc1nn2c(COc3cc(Cl)c(OCc4nnc5sc(S)nn45)cc3Cl)nnc2s1`, the GI50 in the assay on HCT-116 was 46 µM (inactive); in the assay on HOP-62, > 100 µM (inactive); in the assay with HT-29, 43.3 µM (inactive); in the assay on IGROV-1, 41.6 µM (inactive); with KM12, > 100 µM (inactive); in the assay with M14, > 100 µM (inactive). The GI50 in the assay with MCF7 was 18.2 µM (inactive); in the assay on Malme-3M, 40.1 µM (inactive); with NCI-H23, > 100 µM (inactive); in the assay with NCI-H460, > 100 µM (inactive); in the assay on NCI/ADR-RES, > 100 µM (inactive); in the assay on OVCAR-8, 88.5 µM (inactive). The GI50 is 32.4 µM (inactive) in the assay on RPMI-8226; 39.2 µM (inactive) in the assay on RXF 393; > 100 µM (inactive) in the assay with SK-MEL-2; 41.2 µM (inactive) with SK-MEL-5; > 100 µM (inactive) in the assay with SK-OV-3; 82 µM (inactive) with SNB-75. In addition, the values for the GI50 in the assay with SW-620 and with UO-31 were 30.3 µM (inactive) and 31.3 µM (inactive), respectively.

As for `CC1(C)N=C(N)N=C(N)N1c1ccc(Cl)cc1`, the GI50 with HCT-116 was 4.17 µM (inactive); in the assay on HOP-62 it was 9.02 µM (inactive); in the assay with HT-29, 2.92 µM (inactive); in the assay with IGROV-1, 2.23 µM (inactive); with KM12, 8.73 µM (inactive); in the assay on M14, 4.88 µM (inactive). Further, the GI50 in the assay with MCF7 was 15.6 µM (inactive); in the assay with Malme-3M, 26.2 µM (inactive); with NCI-H23 it was 3.44 µM (inactive); with NCI-H460, 3.38 µM (inactive); with NCI/ADR-RES, > 100 µM (inactive); in the assay on OVCAR-8, 0.817 µM (active). For the same molecule, the GI50 in the assay on RPMI-8226 was 6.81 µM (inactive); in the assay on RXF 393, 53.2 µM (inactive); in the assay with SK-MEL-2, 10 µM (inactive); in the assay on SK-MEL-5, 8.11 µM (inactive); with SK-OV-3 it was 27.4 µM (inactive); with SNB-75 it was > 100 µM (inactive). The GI50 in the assay on SW-620 is 1.48 µM (inactive); in the assay on UO-31 it was 47.2 µM (inactive).

Consider `CN(CCO)CCC1COc2ccccc2O1` (stereo not given), for which the GI50 with HCT-116, with HOP-62, with HT-29, in the assay with IGROV-1, in the assay with KM12 and in the assay with M14 was > 10 µM (inactive) throughout. In addition, the GI50 with MCF7, with Malme-3M, in the assay with NCI-H23, in the assay with NCI-H460, with NCI/ADR-RES and with OVCAR-8 was > 10 µM (inactive) each time. Also, the GI50 was > 10 µM (inactive) in the assay on RPMI-8226; 7.98 µM (inactive) with RXF 393; > 10 µM (inactive) in the assay with SK-MEL-2; > 10 µM (inactive) in the assay on SK-MEL-5; > 10 µM (inactive) with SK-OV-3; > 10 µM (inactive) in the assay with SNB-75. The GI50 in the assay on SW-620 and with UO-31 was > 10 µM (inactive) throughout.

For orientation: GI50 means the concentration that inhibits growth by half.
